Earlier results, collected in patent US20070110808A1, “Extended release osmo-microsealed formulation” (ALEMBIC LIMITED, priority 2003, published 2007).

Conditions: compressed tablets, 75 to 350 mg/day in divided doses two or three times a day

patients experiencing nausea: about forty five
patients in whom vomiting occurs: about seventeen
Structure (SMILES): COc1ccc(C(CN(C)C)C2(O)CCCCC2)cc1.Cl (centres unmarked) [Venlafaxine Hydrochloride, 1-[2-(dimethylamino)-1-(4-methoxyphenyl)ethyl]cyclohexanol Hydrochloride]
